Data from patent publication US20180353501A1 (Arvinas, Inc., priority 2017, published 2018).

Target: T1, FLAG-p38δ (Homo sapiens, UniProt O15264)
T1 construct: expressed in transfected cells; host or cells: HeLa cells, transient transfection with Lipofectamine 2000
T1 sequence (O15264 1-365): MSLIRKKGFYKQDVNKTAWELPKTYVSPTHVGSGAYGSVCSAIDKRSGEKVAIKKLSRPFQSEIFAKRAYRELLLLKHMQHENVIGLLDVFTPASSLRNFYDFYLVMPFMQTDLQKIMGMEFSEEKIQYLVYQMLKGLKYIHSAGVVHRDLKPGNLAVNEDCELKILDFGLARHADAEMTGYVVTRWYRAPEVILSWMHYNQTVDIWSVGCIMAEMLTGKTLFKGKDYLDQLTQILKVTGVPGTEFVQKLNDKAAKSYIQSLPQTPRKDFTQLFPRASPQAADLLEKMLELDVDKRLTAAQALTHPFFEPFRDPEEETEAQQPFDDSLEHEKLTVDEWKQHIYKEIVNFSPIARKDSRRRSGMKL
Test: Ubiquitination assay, HeLa cells co-transfected with HA-Ub and FLAG-p38δ
Type: cell-based
Conditions: 1 μM
Excerpt: FIGS. 15A, 15B, and 15C. Differential p38δ:PROTAC:VHL ternary complex affinities result in distinct cellular ubiquitination outcomes. (A) Both exemplary compound 50 and 46 pull-down p38δ in vitro, however compound 46 maintains ternary complex at lower concentrations. As in FIG. 14A, GST-tagged VBC was used as a bait to trap recombinant p38δ in the presence of vehicle (DMSO) or the indicated concentrations of compound 50 or 46. The rightmost lane represents a 1:25 dilution of initial input protein used in each pull-down. […] Samples were assessed by western blot and CUL2 and α-tubulin serve as positive and negative GST-VBC immunoprecipitation controls, respectively. […] FLAGimmunoprecipitated lysates were separated by SDS-PAGE and assessed via western blots detecting HA (Ub). […]
HeLa cells (2×10^6) were seeded into 10 cm dishes and allowed to adhere overnight. […] Lysates were spun down at 14,000×g at 4° C. for 20 minutes and protein content was measured by Pierce BCA Protein Assay (ThermoFisher Scientific). […] Immunoprecipitated protein was eluted off of the beads by heating at 95° C. for 5 minutes and the supernatant was run on an SDS-PAGE gel and evaluated for the presence of immunoprecipitated FLAG-tagged proteins (anti-FLAG M2, Sigma #F1804), as well as ubiquitinated FLAG-tagged proteins (anti-HA-tag (6E2), CST #2367). […]

## COc1cc2c(Oc3ccc(NC(=O)C4(C(=O)Nc5ccc(F)cc5)CC4)cc3F)ccnc2cc1OCCOCCOCCOc1cc(-c2scnc2C)ccc1CNC(=O)[C@@H]1C[C@@H](O)CN1C(=O)[C@H](C(C)C)N1Cc2ccccc2C1=O [compound 46]
  ubiquitination of FLAG-immunoprecipitated p38δ: levels of ubiquitination of FLAG-immunoprecipitated p38δ greater than control cells

## COc1cc2c(Oc3ccc(NC(=O)C4(C(=O)Nc5ccc(F)cc5)CC4)cc3F)ccnc2cc1OCCCCOCCCCOCC(=O)N[C@H](C(=O)N1C[C@H](O)C[C@H]1C(=O)NCc1ccc(-c2scnc2C)cc1)C(C)(C)C [compound 50, N-(3-fluoro-4-((7-(4-(4-(2-(((S)-1-((2S,4R)-4-hydroxy-2-((4-(4-methylthiazol-5-yl)benzyl)carbamoyl)pyrrolidin-1-yl)-3,3-dimethyl-1-oxobutan-2-yl)amino)-2-oxoethoxy)butoxy)buto-xy)-6-methoxyquinolin-4-yl)oxy)phenyl)-N-(4-fluorophenyl)cyclopropane-1,1-dicarboxa-mide]
  ubiquitination of FLAG-immunoprecipitated p38δ: far less abundant
